Where two headings read alike, the source gives them in different places.
Columns and labels:
Format in all cases: cell-based
SW480 (colon cancer) = test: Antiproliferative activity (CCK-8 cell viability), SW480; conditions: Homo sapiens, 72 h; for inhibition at 3.3 µM: Compound concentration: 3.3 μM; for inhibition at 10 µM: Compound concentration: 10 μM; for inhibition at 30 µM: Compound concentration: 30 μM
Outline: (§1)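 Growth inhibition graded in bands from percent viability against DMSO vehicle, read as CCK-8 absorbance at 450 nm. Compound tested at 3.3, 10 or 30 μM for 72 h, 37 °C; media contained 10% FBS: DMEM for HepG2/SW480, MEM for HeLa, F-12K for A549.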

[1] = tested on: MDA-MB-231 (breast cancer); test: Antiproliferative activity (CCK-8 cell viability), MDA-MB-231; conditions: Homo sapiens, 72 h; for inhibition at 3.3 µM: Compound concentration: 3.3 μM; for inhibition at 10 µM: Compound concentration: 10 μM; for inhibition at 30 µM: Compound concentration: 30 μM
Outline: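 Growth inhibition of human MDA-MB-231 breast cancer cells was assessed with a Cell Counting Kit-8. Cells cultured in DMEM plus 10% FBS were seeded at 2,000-5,000 cells/well, treated after attachment, and kept 72 h at 37° C. CCK-8 solution (10 μL) was added for 4 h, and absorbance at 450 nm was compared with DMSO-treated controls.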

HeLa (cervical cancer) = test: Antiproliferative activity (CCK-8 cell viability), HeLa; conditions: Homo sapiens, 72 h; for inhibition at 3.3 µM: Compound concentration: 3.3 μM; for inhibition at 10 µM: Compound concentration: 10 μM; for inhibition at 30 µM: Compound concentration: 30 μM
Outline: as §1

[2] = tested on: B16F10 (malignant melanoma); test: Antiproliferative activity (CCK-8 cell viability), B16F10; conditions: Mus musculus, 72 h; for inhibition at 3.3 µM: B16-F10, Compound concentration: 3.3 μM; for inhibition at 10 µM: B16-F10, Compound concentration: 10 μM; for inhibition at 30 µM: B16-F10, Compound concentration: 30 μM
Outline: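 Cell growth inhibition was measured in B16F10 malignant melanoma cells with a Cell Counting Kit-8 viability assay. Cells were maintained in DMEM plus 10% fetal bovine serum, seeded at 2,000-5,000 cells/well in 96-well plates, and treated for 72 h at 37° C. Viability was expressed relative to DMSO-treated vehicle control wells.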

[3] = tested on: A431 (epidermoid carcinoma); test: Antiproliferative activity (CCK-8 cell viability), A431; conditions: Homo sapiens, 72 h; for inhibition at 3.3 µM: A-431, Compound concentration: 3.3 μM; for inhibition at 10 µM: A-431, Compound concentration: 10 μM; for inhibition at 30 µM: A-431, Compound concentration: 30 μM
Outline: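 This growth inhibition assay used A431 cells maintained in Dulbecco's modified Eagle's medium plus 10% fetal bovine serum. Cells were seeded in 96-well plates, treated with compound for 72 h at 37° C., and then given 10 μL CCK-8 solution. After a further 4 h, absorbance was read at 450 nm.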

[4] = tested on: alpha-smooth muscle actin (α-SMA); test: Inhibition of TGF-β induced expression of alpha-smooth muscle actin (α-SMA) in CFSC cells (western blot); conditions: compound at 10 μM, TGF-β (10 ng/mL), 24 hours, band intensity vs TGF-β only
Procedure: The ability of a compound to inhabit the TGF-β induced expression of alpha-smooth muscle actin (α-SMA) was evaluated in CCl4-treated fat storing (CFSC) cells. α-SMA is considered as a reliable marker of hepatic stellate cell activation and a key biomarker for liver fibrosis.
CFSC cells maintained in a DMEM medium supplemented with 10% fetal bovine serum were seeded to 12-well culture dishes and grown to a confluence of 60-70% the next day. Culture was changed to a serum-free DMEM medium, and the cells were treated with a compound at 10 μM in the presence of TGF-β (10 ng/mL). The cells were incubated for another 24 hours. All culture was maintained at 37° C. in 5% carbon dioxide.
An NP-40 lysate solution (50 mM Tris (pH 7.4), 150 mM NaCl, 1% NP-40) with EDTA free cocktail added was used to lyse the cells on ice for 30 min. The lysate was collected and centrifuged at 4° C. for 10 min at 12,000 rpm. The pellet was discarded and the supernatant was transferred to a new tube. Cell lysates were loaded with 5× loading buffer and boiled for 10 min, resolved by 10% SDS-polyacrylamide gel electrophoresis (SDS-PAGE), and transferred to PVDF membrane. The membrane was blocked with 5% skim milk in Tris-buffered saline and TWEEN® 20 (TBST; 10 mM Tris-HCl (pH 8.0), 150 mM NaCl, 0.1% TWEEN® 20) for 1 h at room temperature and then incubated with α-SMA and β-actin antibodies overnight at 4° C. After washing twice with TBST, the membrane was probed with a horseradish […] anti-immunoglobulin (1:5000 dilution) for 1 h at room temperature. After two subsequent rinses in TBST, immunoreactive products were reacted with ECL and visualized by a UVP CHEMSTUDIO™ imaging system. The western blotting bands are quantitated using an ImageJ software. The percentage of inhibition was obtained by calculating the percentage decrease in the band intensity compared to the one treated with TGF-β only.
The results are summarized in Table 1, where A represents a value no less of 80% inhibition, B represents a value less than […] but no less than […], C represents a value less than 50% but no less than 30% inhibition, and D represents a value less than 30% inhibition with a compound at 10 μM.

HepG2 (liver cancer) = test: Antiproliferative activity (CCK-8 cell viability), HepG2; conditions: Homo sapiens, 72 h; for inhibition at 3.3 µM: Compound concentration: 3.3 μM; for inhibition at 10 µM: Compound concentration: 10 μM; for inhibition at 30 µM: Compound concentration: 30 μM
Outline: as §1

[5] = tested on: A549 (lung adenocarcinoma); test: Antiproliferative activity (CCK-8 cell viability), A549; conditions: Homo sapiens, 72 h; for inhibition at 3.3 µM: Compound concentration: 3.3 μM; for inhibition at 10 µM: Compound concentration: 10 μM; for inhibition at 30 µM: Compound concentration: 30 μM
Outline: as §1

[6] = read-out: Antiproliferative activity in cancerous cells, SW480 (inhibition of cell growth)
[7] = read-out: Antiproliferative activity in cancerous cells, MDA-MB-231 (inhibition of cell growth)
[8] = read-out: Antiproliferative activity in cancerous cells, HELA (inhibition of cell growth)
[9] = read-out: Antiproliferative activity in cancerous cells, B16F10 (inhibition of cell growth)
[10] = read-out: Antiproliferative activity in cancerous cells, A431 (inhibition of cell growth)
[11] = read-out: Antiproliferative activity in cancerous cells, HepG2 (inhibition of cell growth)
[12] = read-out: Antiproliferative activity in cancerous cells, A549 (inhibition of cell growth)

Compound	inhibition at 3.3 µM (SW480 (colon cancer); [6])	inhibition at 10 µM (SW480 (colon cancer); [6])	inhibition at 30 µM (SW480 (colon cancer); [6])	inhibition at 3.3 µM [1, 7]	inhibition at 10 µM [1, 7]	inhibition at 30 µM [1, 7]	inhibition at 3.3 µM (HeLa (cervical cancer); [8])	inhibition at 10 µM (HeLa (cervical cancer); [8])	inhibition at 30 µM (HeLa (cervical cancer); [8])	inhibition at 3.3 µM [2, 9]	inhibition at 10 µM [2, 9]	inhibition at 30 µM [2, 9]	inhibition at 3.3 µM [3, 10]	inhibition at 10 µM [3, 10]	inhibition at 30 µM [3, 10]	inhibition at 10 µM [4]	inhibition at 3.3 µM (HepG2 (liver cancer); [11])	inhibition at 10 µM (HepG2 (liver cancer); [11])	inhibition at 3.3 µM [5, 12]	inhibition at 10 µM [5, 12]	also measured
CC1=C(CC(=O)O)c2cc(F)cc(F)c2/C1=C/c1cccc(COc2ccccc2)c1 [E7, (E)-2-(5,7-Difluoro-2-methyl-1-(3-(phenoxymethyl)benzylidene)-1H-inden-3-yl)-acetic acid]	≥ 50%	≥ 50%	≥ 50%	< 30%	≥ 50%	≥ 50%	≥ 50%	≥ 50%	≥ 50%	< 30%	< 30%	≥ 50%	30 to 50%	≥ 50%	≥ 50%	> 80%	30 to 50%	≥ 50%	≥ 50%	≥ 50%	inhibition at 30 µM (HepG2 (liver cancer); [11]): ≥ 50%; inhibition at 30 µM [5, 12]: ≥ 50%
CC1=C(CC(=O)O)c2ccc(F)cc2/C1=C\c1cccc(Oc2ccccc2)c1 [C16, (Z)-2-(6-Fluoro-2-methyl-1-(3-phenoxybenzylidene)-1H-inden-3-yl)acetic acid]	< 30%	< 30%		≥ 50%	30 to 50%		< 30%	< 30%		< 30%	≥ 50%		≥ 50%	≥ 50%		> 80%	≥ 50%	≥ 50%	< 30%	30 to 50%	
COc1ccc(Oc2ccc(/C=C3/C(C)=C(CC(=O)O)c4cc(F)ccc43)cn2)cc1 [C35, (Z)-2-(5-Fluoro-1-((6-(4-methoxyphenoxy)pyridin-3-yl)methylene)-2-methyl-1H-inden-3-yl)acetic acid]	< 30%	30 to 50%		< 30%	< 30%		< 30%	< 30%		< 30%	< 30%		< 30%	< 30%		< 30%	< 30%	< 30%	≥ 50%	≥ 50%	inhibition at 30 µM (SW480 (colon cancer); read-out: Antiproliferative activity in cancerous cells, SW480): < 30%; inhibition at 30 µM ([1]; read-out: Antiproliferative activity in cancerous cells, MDA-MB-231): 30 to 50%; inhibition at 30 µM (HeLa (cervical cancer); read-out: Antiproliferative activity in cancerous cells, HELA): < 30%; inhibition at 30 µM ([2]; read-out: Antiproliferative activity in cancerous cells, B16F10): < 30%; inhibition at 30 µM ([3]; read-out: Antiproliferative activity in cancerous cells, A431): < 30%; inhibition at 30 µM (HepG2 (liver cancer); read-out: Antiproliferative activity in cancerous cells, HepG2): < 30%; inhibition at 30 µM ([5]; read-out: Antiproliferative activity in cancerous cells, A549): 30 to 50%
O=C(O)CC1=C(CC2CCCC2)/C(=C/c2ccc(COc3ccccc3)cc2)c2ccc(F)cc21 [A3, (Z)-2-(2-(Cyclopentylmethyl)-5-fluoro-1-(4-(phenoxymethyl)benzylidene)-1H-inden-3-yl)acetic acid]	≥ 50%	≥ 50%		≥ 50%	≥ 50%		30 to 50%	≥ 50%		≥ 50%	≥ 50%		≥ 50%	≥ 50%		> 80%	30 to 50%	≥ 50%	30 to 50%	≥ 50%	
CC1=C(CCC(=O)O)c2ccccc2/C1=C/c1cccc(Oc2ccccc2)c1 [E10, (E)-3-(2-Methyl-1-(3-phenoxybenzylidene)-1H-inden-3-yl)propanoic acid]	< 30%	< 30%	30 to 50%	< 30%	< 30%	≥ 50%	< 30%	< 30%	< 30%	< 30%	< 30%	30 to 50%	< 30%	< 30%	< 30%	< 30%	< 30%	< 30%	< 30%	30 to 50%	inhibition at 30 µM (HepG2 (liver cancer); [11]): < 30%; inhibition at 30 µM [5, 12]: ≥ 50%
